Experimental data published in US12168646B2, “Aryl hydrocarbon receptor agonists and uses thereof” (NEXYS THERAPEUTICS, INC., priority 2022, dated 2024).
pEC50: −log10 of the molar value. Read-outs that look alike come from different tables or passages of the source.

Assays:
[1] = Stability in human feces (azo reduction in feces homogenate); type: in vitro ADME; details: pH 6.8, 37° C., under nitrogen
Procedure: Biological Data 2: Stability in Human Feces
Accordingly, selected azo compounds of the invention were exposed to human feces under conditions suitable to promote azo reduction.
The human feces from two donors were homogenized in isotonic phosphate buffered saline (pH 6.8) with a ratio of 1:10 (w/v). The tubes were sealed using sealing film. Test article was dissolved in isotonic phosphate buffer (pH 6.8) to form a working solution of 20 μM (if the solubility allows). An aliquot of working solution (50 μL) was added to the human feces homogenate (50 μL) for each time point (0, 1, 2, 4, 6 and 24 h) in duplicate and placed under nitrogen for about 1 minute in order to exhaust air, and then incubated at 37° C. After incubation at each pre-set time point, 1000 μL acetonitrile containing internal standard w as added to each tube to quench reaction. Samples were vortexed and centrifuged at 3700 rpm for 10 min and the supernatant was transferred for analysis (and diluted where necessary). The concentrations of test article and its metabolite (example 3) in the supernatants were determined using LC-MS/MS method. Sulfasalazine was used as a positive control. All incubations were performed in duplicate.

AhR = biological target: T1, AhR (Homo sapiens, UniProt P35869); assay: HT29 AhR Reporter Assay (HT29-Lucia AhR cells, QUANTI-Luc luminescence); type: cell-based; details: for pEC50: 18-24 h, EC50 = concentration to reach half of maximum efficacy of reference compound VAF347; for Emax: read-out: HT29 AhR % efficacy
T1 construct: HT29-Lucia AhR cells were purchased from Invivogen (cat #ht21-ahr); host or cells: HT29-Lucia AhR cells
T1 sequence (P35869 11-848): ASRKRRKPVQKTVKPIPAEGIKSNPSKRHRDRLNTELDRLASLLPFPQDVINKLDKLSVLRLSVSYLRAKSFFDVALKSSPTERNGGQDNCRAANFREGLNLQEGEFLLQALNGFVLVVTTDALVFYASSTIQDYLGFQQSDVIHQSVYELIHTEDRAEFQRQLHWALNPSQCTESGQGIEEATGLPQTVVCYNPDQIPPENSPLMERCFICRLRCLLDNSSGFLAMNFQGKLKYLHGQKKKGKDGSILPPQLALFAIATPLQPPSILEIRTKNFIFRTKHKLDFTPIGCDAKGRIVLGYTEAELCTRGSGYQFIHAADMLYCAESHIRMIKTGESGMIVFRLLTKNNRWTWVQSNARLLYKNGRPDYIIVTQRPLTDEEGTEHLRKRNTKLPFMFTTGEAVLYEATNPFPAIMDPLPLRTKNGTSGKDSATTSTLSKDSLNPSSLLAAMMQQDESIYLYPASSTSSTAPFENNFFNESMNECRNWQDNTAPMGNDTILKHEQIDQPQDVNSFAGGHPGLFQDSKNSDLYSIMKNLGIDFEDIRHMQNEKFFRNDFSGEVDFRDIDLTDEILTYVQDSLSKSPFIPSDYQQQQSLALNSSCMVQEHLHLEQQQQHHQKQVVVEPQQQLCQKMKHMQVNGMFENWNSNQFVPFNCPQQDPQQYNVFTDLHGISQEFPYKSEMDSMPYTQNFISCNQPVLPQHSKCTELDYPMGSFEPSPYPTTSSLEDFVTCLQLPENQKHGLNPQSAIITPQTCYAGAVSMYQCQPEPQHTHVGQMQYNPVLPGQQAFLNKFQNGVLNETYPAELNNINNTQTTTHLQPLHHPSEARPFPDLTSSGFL
Procedure: Biological Data 1: HT29 AhR Reporter Assay HT29-Lucia AhR cells were purchased from Invivogen (cat #ht21-ahr). […] The cell suspension was removed from growth medium and rinsed gently with pre-warmed PBS (10 mL). Pre-warmed Trypsin (1 mL) was added, and cells were held at 30° C. for about 5 min and then detached by pipette. The dissociated cell clumps were gently pipetted up and down. The cells were resuspended in pre-warmed detection medium (DMEM, 10% FBS (30 min at 56° C.), 100 U/ml penicillin, 100 μg/ml streptomycin, and test article or vehicle) and counted. A cell suspension of ˜500,000 cells/mL in Detection medium was prepared. […] Samples (20 μL/well) were pipetted into a 96-well white (opaque), and QUANTI-Luc™ (50 μL/well) was added. The plate was gently tapped and then read in a luminometer (0.1 s reading time).

[2] = HT29-Lucia AhR cells, % efficacy = 100%*(TA-BG)/(Ref-BG), Ref = VAF347

Row | SMILES | % of parent remaining after incubation for 6 h [1] | pEC50 (AhR; HT29-Lucia AhR cells) | Emax (AhR; [2]) | Emax (AhR)
1 | O=C(O)c1cc(O)cc(/N=N/c2ccccc2-c2ccnc(Nc3ccc(C(F)(F)F)cc3)n2)c1 [Example 55, (E)-3-hydroxy-5-((2-(2-((4-(trifluoromethyl)phenyl)amino)pyrimidin-4-yl)phenyl)diazenyl)benzoic acid] | 76% | – | – | –
2 | Nc1ccc(-c2ccnc(Nc3ccc(C(F)(F)F)cc3)n2)cc1Cl [Example 5, 4-(4-amino-3-chlorophenyl)-N-(4-(trifluoromethyl)phenyl)pyrimidin-2-amine] | – | 4.70 | 46% | –
3 | FC(F)(F)c1ccc(Nc2nccc(-c3cccc(Cl)c3)n2)cc1 [VAF347, reference compound] | – | 7.59 | 100% | –
4 | Nc1ccc(Nc2nccc(-c3ccccc3O)n2)cc1 [Example 25, 2-(2-((4-aminophenyl)amino)pyrimidin-4-yl)phenol] | – | 5.16 | 21% | –
5 | O=C(O)c1cc(/N=N/c2ccccc2-c2ccnc(Nc3ccc(C(F)(F)F)cc3)n2)ccc1O [Example 32, (E)-2-hydroxy-5-((2-(2-((4-(trifluoromethyl)phenyl)amino)pyrimidin-4-yl)phenyl)diazenyl)benzoic acid] | 49% | – | – | –
6 | COc1cc(/N=N/c2ccccc2-c2ccnc(Nc3ccc(C(F)(F)F)cc3)n2)ccc1C(=O)O [Example 42, (E)-2-methoxy-4-((2-(2-((4-(trifluoromethyl)phenyl)amino)pyrimidin-4-yl)phenyl)diazenyl)benzoic acid] | 98% | – | – | –
7 | O=C(O)c1ccc(/N=N/c2ccccc2-c2ccnc(Nc3ccc(C(F)(F)F)cc3)n2)c(O)c1 [Example 40, (E)-3-hydroxy-4-((2-(2-((4-(trifluoromethyl)phenyl)amino)pyrimidin-4-yl)phenyl)diazenyl)benzoic acid] | 22% | – | – | –
8 | O=C(O)c1cc(/N=N/c2cccc(-c3ccnc(Nc4ccc(C(F)(F)F)cc4)n3)c2)ccc1O [Example 27, (E)-2-hydroxy-5-((3-(2-((4-(trifluoromethyl)phenyl)amino)pyrimidin-4-yl)phenyl)diazenyl)benzoic acid] | 74% | – | – | –
9 | Nc1cc(C(F)(F)F)ccc1Nc1nccc(-c2cccc(Cl)c2)n1 [Example 21, N^1-(4-(3-chlorophenyl)pyrimidin-2-yl)-4-(trifluoromethyl)benzene-1,2-diamine] | – | < 4.52 | 27% | –
10 | O=C(O)c1cc(/N=N/c2ccccc2-c2ccnc(Nc3ccc(C(F)(F)F)cc3)n2)cc(C(=O)O)c1O [Example 37, (E)-2-Hydroxy-5-((2-(2-((4-(trifluoromethyl)phenyl)amino)pyrimidin-4-yl)phenyl)diazenyl)isophthalic acid] | 69% | – | – | –
11 | Nc1ccc(CC(=O)O)c(-c2ccnc(Nc3ccc(C(F)(F)F)cc3)n2)c1 [Example 10, 2-(4-amino-2-(2-((4-(trifluoromethyl)phenyl)amino)pyrimidin-4-yl)phenyl)acetic acid] | – | 5.03 | 69% | –
12 | CS(=O)(=O)c1ccc(N)c(-c2ccnc(Nc3ccc(C(F)(F)F)cc3)n2)c1 [Example 13, 4-(2-amino-5-(methylsulfonyl)phenyl)-N-(4-(trifluoromethyl)phenyl)pyrimidin-2-amine] | – | < 4.52 | – | 7%
13 | Nc1ccc(-c2ccnc(Nc3ccc(C(F)(F)F)cc3)n2)c(C(=O)O)c1 [Example 8, 5-amino-2-(2-((4-(trifluoromethyl)phenyl)amino)pyrimidin-4-yl)benzoic acid] | – | < 4.52 | 13% | –
14 | Nc1cc(Nc2nccc(-c3ccccc3C(=O)O)n2)ccc1C(F)(F)F [Example 23, 2-(2-((3-amino-4-(trifluoromethyl)phenyl)amino)pyrimidin-4-yl)benzoic acid] | – | < 4.52 | 33% | –
15 | O=S(=O)(O)c1cc(/N=N/c2ccccc2-c2ccnc(Nc3ccc(C(F)(F)F)cc3)n2)ccc1O [Example 50, (E)-2-hydroxy-5-((2-(2-((4-(trifluoromethyl)phenyl)amino)pyrimidin-4-yl)phenyl)diazenyl)benzenesulfonic acid] | 10% | – | – | –
16 | Nc1ccc(O)c(-c2ccnc(Nc3ccc(C(F)(F)F)cc3)n2)c1 [Example 11, 4-amino-2-(2-((4-(trifluoromethyl)phenyl)amino)pyrimidin-4-yl)phenol] | – | < 4.52 | – | -17%
17 | Nc1cccc(-c2ccnc(Nc3ccc(C(=O)O)cc3)n2)c1 [Example 18, 4-((4-(3-aminophenyl)pyrimidin-2-yl)amino)benzoic acid] | – | < 4.52 | 10% | –
18 | Nc1cccc(-c2ccnc(Nc3cccc(C(=O)O)c3)n2)c1 [Example 20, 3-((4-(3-aminophenyl)pyrimidin-2-yl)amino)benzoic acid] | – | < 4.52 | 13% | –
19 | CS(=O)(=O)c1ccc(N)cc1-c1ccnc(Nc2ccc(C(F)(F)F)cc2)n1 [Example 14, 4-(5-amino-2-(methylsulfonyl)phenyl)-N-(4-(trifluoromethyl)phenyl)pyrimidin-2-amine] | – | 4.77 | – | 51%
20 | Nc1ccc(O)cc1-c1ccnc(Nc2ccc(C(F)(F)F)cc2)n1 [Example 12, 4-amino-3-(2-((4-(trifluoromethyl)phenyl)amino)pyrimidin-4-yl)phenol] | – | < 4.52 | – | 17%
21 | Nc1cccc(Nc2nccc(-c3ccccc3O)n2)c1 [Example 26, 2-(2-((3-aminophenyl)amino)pyrimidin-4-yl)phenol] | – | < 4.52 | 141% | –
22 | Nc1cc(Nc2nccc(-c3cccc(Cl)c3)n2)ccc1C(F)(F)F [Example 22, N^1-(4-(3-chlorophenyl)pyrimidin-2-yl)-4-(trifluoromethyl)benzene-1,3-diamine] | – | 7.74 | 124% | –
23 | Nc1cc(Nc2nccc(-c3cccc(C(=O)O)c3)n2)ccc1C(F)(F)F [Example 24, 3-(2-((3-amino-4-(trifluoromethyl)phenyl)amino)pyrimidin-4-yl)benzoic acid] | – | < 4.52 | 5% | –
24 | Nc1cc(Cl)cc(-c2ccnc(Nc3ccc(C(F)(F)F)cc3)n2)c1 [Example 6, 4-(3-amino-5-chlorophenyl)-N-(4-(trifluoromethyl)phenyl)pyrimidin-2-amine] | – | < 4.52 | 15% | –
25 | Nc1ccc(-c2ccnc(Nc3ccc(C(F)(F)F)cc3)n2)cc1 [Example 1, 4-(4-aminophenyl)-N-(4-(trifluoromethyl)phenyl)pyrimidin-2-amine] | – | < 4.52 | – | 16%
26 | Nc1cccc(C(=O)O)c1-c1ccnc(Nc2ccc(C(F)(F)F)cc2)n1 [Example 9] | – | 5.58 | – | 89%
27 | Nc1ccccc1-c1ccnc(Nc2ccc(C(F)(F)F)cc2)n1 [Example 3, 4-(2-aminophenyl)-N-(4-(trifluoromethyl)phenyl)pyrimidin-2-amine] | – | 5.88 | – | 165%
28 | Nc1ccc(Cl)cc1-c1ccnc(Nc2ccc(C(F)(F)F)cc2)n1 [Example 4, 4-(2-amino-5-chlorophenyl)-N-(4-(trifluoromethyl)phenyl)pyrimidin-2-amine] | – | < 4.52 | – | 18%
29 | Nc1ccc(C(=O)O)c(-c2ccnc(Nc3ccc(C(F)(F)F)cc3)n2)c1 [Example 7, 4-amino-2-(2-((4-(trifluoromethyl)phenyl)amino)pyrimidin-4-yl)benzoic acid] | – | < 4.52 | 29% | –
